Read-outs that look alike come from different tables or passages of the source.
Tests used:
TRβ-LBD/RXRα = biological target: T1, TRβ-LBD/RXRα (Homo sapiens, UniProt P10828); assay: In vitro binding experiment (TR-FRET SRC2-2 co-activator peptide recruitment), TRβ; type: biochemical; settings: 4 h incubation at room temperature
T1 construct: TRβ-LBD (Invitrogen, PV4764) with a GST tag were used; purchased Invitrogen (TRβ-LBD); Pharmaron (RXRα) PV4764

TRβ = biological target: T2, TRβ (Homo sapiens, UniProt P10828); assay: In vitro TRβ cell transfection experiment (GAL4 luciferase reporter, HEK293T); type: cell-based
T2 construct: host or cells: HEK293T
T2 sequence (P10828 217-461 limits assumed): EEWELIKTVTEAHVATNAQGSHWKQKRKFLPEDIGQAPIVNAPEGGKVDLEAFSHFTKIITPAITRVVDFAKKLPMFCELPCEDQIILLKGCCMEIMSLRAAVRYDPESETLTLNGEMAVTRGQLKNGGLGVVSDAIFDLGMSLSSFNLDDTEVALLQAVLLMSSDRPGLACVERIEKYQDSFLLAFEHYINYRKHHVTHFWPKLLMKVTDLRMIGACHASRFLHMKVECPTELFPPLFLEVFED
T2 sequence (P19793 227-458 partner limits assumed): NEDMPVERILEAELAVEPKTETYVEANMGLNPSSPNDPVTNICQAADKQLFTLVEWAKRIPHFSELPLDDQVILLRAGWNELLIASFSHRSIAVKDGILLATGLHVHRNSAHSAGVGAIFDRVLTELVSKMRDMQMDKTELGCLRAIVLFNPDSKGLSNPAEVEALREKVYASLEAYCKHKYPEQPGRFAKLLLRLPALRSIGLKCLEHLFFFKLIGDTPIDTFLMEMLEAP

TRα-LBD/RXRα = biological target: T3, TRα-LBD/RXRα (Homo sapiens, UniProt P10827); assay: In vitro binding experiment (TR-FRET SRC2-2 co-activator peptide recruitment), TRα; type: biochemical; settings: 4 h incubation at room temperature
T3 construct: TRα-LBD (Invitrogen, PV4762), or TRβ-LBD (Invitrogen, PV4764) with a GST tag were used; purchased Invitrogen (TRα-LBD); Pharmaron (RXRα) PV4762

TRα = biological target: T4, TRα (Homo sapiens, UniProt P10827); assay: In vitro TRα cell transfection experiment (GAL4 luciferase reporter, HEK293T); type: cell-based
T4 construct: host or cells: HEK293T
T4 sequence (P10827 1-410 isoform P10827-2): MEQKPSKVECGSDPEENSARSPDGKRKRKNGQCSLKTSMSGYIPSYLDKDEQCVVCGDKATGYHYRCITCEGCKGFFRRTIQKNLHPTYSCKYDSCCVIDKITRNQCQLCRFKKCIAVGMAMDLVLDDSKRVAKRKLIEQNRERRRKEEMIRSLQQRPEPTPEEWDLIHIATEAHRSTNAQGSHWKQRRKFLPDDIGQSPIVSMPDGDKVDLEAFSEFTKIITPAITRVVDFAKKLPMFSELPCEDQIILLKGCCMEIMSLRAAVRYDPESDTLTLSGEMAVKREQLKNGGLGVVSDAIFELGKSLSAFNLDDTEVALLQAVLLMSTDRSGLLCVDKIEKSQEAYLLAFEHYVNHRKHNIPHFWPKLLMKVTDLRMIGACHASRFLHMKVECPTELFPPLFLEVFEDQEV
T4 sequence (P19793 227-458 partner limits assumed): T2 sequence (P19793 227-458 partner limits assumed)

[1] = PK experiment of cynomolgus monkeys; type: in vivo; settings: cynomolgus monkey, plasma; for AUC(0-t): read-out: Area under the curve AUC(0-t) in the case of administration; for Cmax: read-out: Peak concentration Cmax
Source text: The purpose of this experiment was to evaluate the pharmacokinetic behavior of the compound to be tested after single intravenous and intragastric administration, and to study the bioavailability after intragastric administration, providing animal experimental data for clinical studies.
Preparation of solutions for intravenous injection and intragastric administration: an appropriate amount of compound to be tested was accurately weighed, and mixed with a suitable solvent (5 vol % DMSO+10 vol % polyethylene glycol−15-hydroxystearate+85 vol % normal saline). After vortex, or ultrasound processing, a clear and transparent solution (the solution for intravenous injection administration), or a uniform suspension was obtained. The solution administrated by intravenous injection needed to be filtered through a 0.22 μm filter membrane
Experimental design: before the first dose the cynomolgus monkeys were divided into 2 groups by body weight with 3 male cynomolgus monkeys in each group, where animals in group 1 were given the compound to be tested (1 mg/kg) by single intravenous injection (IV); and animals in the 2rd group were administrated with the compound to be tested (5 mg/kg) by single intragastric administration (PO). The animals were weighed before administration, and dosages were calculated based on the weights of the animals.
Sample collection: a whole blood sample (about 0.2 mL) was collected at a specified time by venipuncture of an upper limb (or other suitable blood collection sites), and the actual blood collection time was recorded in test records. The acceptable error for one acquisition time point within 1 hour after administration is ±1 minute, and the acceptable error for other time points is ±5% of the theoretical time. All blood samples were immediately transferred to a labeled commercial centrifuge tube containing K2-EDTA. After blood sample collection, the blood sample was centrifuged at 4° C. and 3,200 g for 10 minutes, the supernatant plasma was sucked, quickly put in dry ice, and kept in a refrigerator at −70±10° C. for LC-MS/MS analysis. The collection time of both groups was 0.083 hour, 0.25 hour, 0.5 hour, 1 hour, 2 hours, 4 hours, 8 hours and 24 hours after administration.
Data processing: Area under the curve (AUC(0-t) and AUC(0-∞)), elimination half-life (T½), peak concentration (Cmax), time to reach maximum plasma concentration (Tmax), etc., were calculated by the non-compartment analysis module in Phoenix WinNonlin 7.0.

T1 sequence (P19793 whole entry partner, other chains not shown, the tested form may be a part): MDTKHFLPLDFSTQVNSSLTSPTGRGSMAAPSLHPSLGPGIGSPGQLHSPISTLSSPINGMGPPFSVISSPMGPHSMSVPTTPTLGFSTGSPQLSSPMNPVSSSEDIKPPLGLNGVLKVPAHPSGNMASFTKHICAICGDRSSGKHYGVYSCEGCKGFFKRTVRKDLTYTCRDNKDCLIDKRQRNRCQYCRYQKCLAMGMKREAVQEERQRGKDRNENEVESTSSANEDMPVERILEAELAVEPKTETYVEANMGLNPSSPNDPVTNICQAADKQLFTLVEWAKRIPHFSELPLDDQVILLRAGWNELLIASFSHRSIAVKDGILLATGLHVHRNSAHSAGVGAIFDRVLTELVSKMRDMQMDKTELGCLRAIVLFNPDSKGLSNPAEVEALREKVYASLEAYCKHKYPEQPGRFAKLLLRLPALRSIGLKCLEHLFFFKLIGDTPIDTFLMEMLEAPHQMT
T3 sequence (P19793 whole entry partner, other chains not shown, the tested form may be a part): as above

Compound: CC(C)c1nc(Oc2c(Cl)cc(NCP(=O)(O)O)cc2Cl)ncc1O [KH02]
- EC50 (TRβ-LBD/RXRα): 1.06 µM

Compound: CCC(CC)c1nc(Oc2c(Cl)cc(-n3nc(C#N)c(=O)[nH]c3=O)cc2Cl)ncc1O [KHE009]
- EC50 (TRβ): 0.074 µM
- EC50 (TRα-LBD/RXRα): 0.258 µM
- EC50 (TRα): 0.507 µM
- EC50 (TRβ-LBD/RXRα): 0.04 µM

Compound: CC(C)c1cc(Oc2c(Cl)cc(-n3nc(C#N)c(=O)[nH]c3=O)cc2Cl)n[nH]c1=O [MGL3196, reference compound]
- half-life ([1]; IV, 1 mg/kg, single dose, male cynomolgus monkeys, read-out: Half-life period (T1/2) (converted)): 1.45 h
- bioavailability ([1]; male, PO 5 mg/kg vs IV 1 mg/kg, read-out: Bioavailability (F)): 8.47%
- AUC(0-t) ([1]; male, IV, 1 mg/kg, single dose): 3900 ng·h/mL
- Cmax ([1]; male, IV, 1 mg/kg, single dose): 11200 ng/mL
- AUC(0-t) ([1]; male, PO, 5 mg/kg, single dose): 1650 ng·h/mL
- Cmax ([1]; male, PO, 5 mg/kg, single dose): 430 ng/mL

Compound: N#Cc1nn(-c2cc(Cl)c(Oc3ncc(O)c(C4CC(F)(F)C4)n3)c(Cl)c2)c(=O)[nH]c1=O [KHE019]
- EC50 (TRα-LBD/RXRα): 2.38 µM
- EC50 (TRβ-LBD/RXRα): 0.254 µM

Compound: N#Cc1nn(-c2cc(Cl)c(Oc3ncc(O)c(Cc4ccccc4)n3)c(Cl)c2)c(=O)[nH]c1=O [KH09]
- EC50 (TRα-LBD/RXRα): 1.88 µM
- EC50 (TRβ-LBD/RXRα): 0.066 µM

Compound: O=c1cnn(-c2cc(Cl)c(Oc3ncc(O)c(Cc4ccc(F)cc4)n3)c(Cl)c2)c(=O)[nH]1 [KHE002]
- EC50 (TRβ): 0.004 µM
- EC50 (TRα-LBD/RXRα): 0.272 µM
- EC50 (TRα): 0.039 µM
- EC50 (TRβ-LBD/RXRα): 0.003 µM

Compound: N#Cc1nn(-c2cc(Cl)c(Oc3ncc(O)c(Cc4ccc(F)cc4)n3)c(Cl)c2)c(=O)[nH]c1=O [KHE001]
- EC50 (TRβ): 0.258 µM
- EC50 (TRα-LBD/RXRα): 0.418 µM
- EC50 (TRα): 0.563 µM
- EC50 (TRβ-LBD/RXRα): 0.007 µM

Compound: CC(C)c1nc(Oc2c(Cl)cc(-n3ncc(=O)[nH]c3=O)c3c2CCC3)ncc1O [KH14]
- EC50 (TRβ): 0.148 µM
- EC50 (TRα-LBD/RXRα): 0.102 µM
- EC50 (TRα): 0.383 µM
- EC50 (TRβ-LBD/RXRα): 0.105 µM

Compound: O=c1cnn(-c2cc(Cl)c(Oc3ncc(O)c(CC4CCCCC4)n3)c(Cl)c2)c(=O)[nH]1 [KHE008]
- EC50 (TRβ): 0.008 µM
- EC50 (TRα-LBD/RXRα): 4.54 µM
- EC50 (TRα): 0.049 µM
- EC50 (TRβ-LBD/RXRα): 0.067 µM

Compound: CCC(CC)c1nc(Oc2c(Cl)cc(-n3ncc(=O)[nH]c3=O)cc2Cl)ncc1O [KHE010]
- EC50 (TRα-LBD/RXRα): 0.22 µM
- EC50 (TRβ-LBD/RXRα): 0.029 µM

Compound: CC(C)c1nc(Sc2c(Cl)cc(-n3nc(C#N)c(=O)[nH]c3=O)cc2Cl)ncc1O [KH17]
- EC50 (TRα-LBD/RXRα): 0.385 µM
- EC50 (TRβ-LBD/RXRα): 0.021 µM

Compound: CC(C)c1nc(Sc2c(Cl)cc(-n3ncc(=O)[nH]c3=O)cc2Cl)ncc1O [KH18]
- EC50 (TRβ): 0.007 µM
- EC50 (TRα-LBD/RXRα): 0.188 µM
- EC50 (TRα): 0.028 µM
- EC50 (TRβ-LBD/RXRα): 0.011 µM

Compound: CC(C)c1nc(Oc2c(Cl)cc(NCC(=O)O)cc2Cl)ncc1O [KH04]
- EC50 (TRβ): 1.28 µM
- EC50 (TRα-LBD/RXRα): 0.133 µM
- EC50 (TRα): 2.49 µM
- EC50 (TRβ-LBD/RXRα): 0.113 µM

Compound: N#Cc1nn(-c2cc(Cl)c(Oc3ncc(O)c(C4CC4)n3)c(Cl)c2)c(=O)[nH]c1=O [KHE017]
- EC50 (TRβ): 0.88 µM
- EC50 (TRα-LBD/RXRα): 0.737 µM
- EC50 (TRα): 3.31 µM
- EC50 (TRβ-LBD/RXRα): 0.077 µM

Compound: O=c1cnn(-c2cc(Cl)c(Oc3ncc(O)c(C4CC4)n3)c(Cl)c2)c(=O)[nH]1 [KHE018]
- EC50 (TRβ): 0.102 µM
- EC50 (TRα-LBD/RXRα): 0.346 µM
- EC50 (TRα): 0.407 µM
- EC50 (TRβ-LBD/RXRα): 0.04 µM

Compound: [2H]C([2H])([2H])C(c1nc(Oc2c(Cl)cc(-n3nc(C#N)c(=O)[nH]c3=O)cc2Cl)ncc1O)C([2H])([2H])[2H] [KH15]
- EC50 (TRβ): 0.205 µM
- EC50 (TRα-LBD/RXRα): 0.194 µM
- EC50 (TRα): 1.46 µM
- EC50 (TRβ-LBD/RXRα): 0.014 µM

Compound: CC(C)c1nc(Oc2c(Cl)cc(-n3nc(C#N)c(=O)[nH]c3=O)c3c2CCO3)ncc1O [KH07]
- EC50 (TRβ): 0.208 µM
- EC50 (TRα-LBD/RXRα): 0.31 µM
- EC50 (TRα): 0.964 µM
- EC50 (TRβ-LBD/RXRα): 0.048 µM

Compound: N#Cc1nn(-c2cc(Cl)c(Oc3ncc(O)c(CC4CCCCC4)n3)c(Cl)c2)c(=O)[nH]c1=O [KHE007]
- EC50 (TRβ): 0.227 µM
- EC50 (TRα-LBD/RXRα): 5.12 µM
- EC50 (TRα): 0.528 µM
- EC50 (TRβ-LBD/RXRα): 0.089 µM

Compound: CC(C)c1nc(Oc2c(Cl)cc(-n3nc(C#N)c(=O)[nH]c3=O)c3c2CCC3)ncc1O [KH13]
- EC50 (TRβ): 1.13 µM
- EC50 (TRα-LBD/RXRα): 0.132 µM
- EC50 (TRα): 2.74 µM
- EC50 (TRβ-LBD/RXRα): 0.054 µM

Compound: CC(C)c1nc(Oc2c(Cl)cc(-c3noc(=O)[nH]3)cc2Cl)ncc1O [KHE003]
- EC50 (TRα-LBD/RXRα): 0.573 µM
- EC50 (TRβ-LBD/RXRα): 0.746 µM

Compound: [2H]C([2H])([2H])C(c1nc(Oc2c(Cl)cc(-n3ncc(=O)[nH]c3=O)cc2Cl)ncc1O)C([2H])([2H])[2H] [KH16]
- EC50 (TRβ): 0.019 µM
- EC50 (TRα-LBD/RXRα): 0.106 µM
- EC50 (TRα): 0.138 µM
- EC50 (TRβ-LBD/RXRα): 0.012 µM

Compound: CC(C)c1nc(Oc2c(Cl)cc(NC(=O)C(=O)O)cc2Cl)ncc1O [KHE021]
- EC50 (TRβ): 0.5 µM
- EC50 (TRα-LBD/RXRα): 0.008 µM
- EC50 (TRα): 1.17 µM
- EC50 (TRβ-LBD/RXRα): 0.001 µM
